Measurements: patent EP3789378A1, “PIPERIDINES OR PIPERIDONES SUBSTITUTED WITH UREA AND HETEROARYL” (Grünenthal GmbH, priority 2019, dated 2021)

target: T1, h FPR2 (Homo sapiens, UniProt P25090); experiment: Agonistic activity in hFPR2-Aq-CHO cells (FLIPR Calcium 5 fluorescence assay); type: cell-based; settings: 11 point half log dilution, final assay concentration from 10µM
T1 construct: expressed in transfected cells
T1 sequence (P25090 1-351): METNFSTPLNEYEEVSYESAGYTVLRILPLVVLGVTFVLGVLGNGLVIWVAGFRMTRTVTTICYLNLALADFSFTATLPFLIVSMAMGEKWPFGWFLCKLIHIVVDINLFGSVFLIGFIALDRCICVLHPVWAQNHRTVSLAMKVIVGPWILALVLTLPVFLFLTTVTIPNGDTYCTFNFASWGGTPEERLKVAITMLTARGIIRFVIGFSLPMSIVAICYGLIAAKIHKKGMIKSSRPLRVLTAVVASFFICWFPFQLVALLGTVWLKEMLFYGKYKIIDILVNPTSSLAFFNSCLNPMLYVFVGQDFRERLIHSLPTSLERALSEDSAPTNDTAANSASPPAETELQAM
Protocol: After washing, the cells are plated at 10,000 cells per well in 40 µL complete medium in a 384-well sterile clear bottom black plate and incubated in a 5% CO2 incubator at 37°C for 18 hours. Plating media is removed from each well by decanting and gentle tapping before 30 µL of 0.5X Calcium 5 dye solution (0.5X FLIPR Calcium 5 dye (Molecular devices, R8186)); HBSS; 20mM HEPES; 2.5mM Probenecid; 0.025% Pluronic F-127; pH adjusted to 7.4) is added to each well and the plate is then incubated at 37°C for 30 minutes. For the assay the plate is equilibrated at room temperature for 10 minutes before placing it in the FLIPR. Compounds are dissolved in DMSO and serially diluted over an 11 point half log (3.16 fold) dilution (2 mM to 20 nM). Compounds are then diluted 1:50 in assay buffer (HBSS; 20mM HEPES; 2.5mM Probenecid; 0.05% gelatin; 0.1% BSA; pH adjusted to 7.4) just before performing the assay. Compounds are finally added to the respective wells of the cell plate (final assay concentration 10 µM to 100 pM) using the FLIPR (e.g. FLIPR-Tetra, Molecular Devices) and fluorescence readings are captured for 5 minutes. The increase in fluorescence from the basal reading in the presence of the compounds is compared with that of the control wells (wells having no compound) to calculate the activity of the compounds. The EC50 values of the compounds can be determined using e.g. Graph pad Prism software.
Assay method for measuring agonistic activity of compounds in hFPR2-Aq-CHO cell
Cryo-vial containing 6x10^6 cells (hFPR1-Gα15-CHO or hFPR2-Aq-CHO) was thawed in a 37°C water bath. Cells were suspended in 10ml of respective complete growth media (F12(1X)HAM media (Gibco; Cat#11765); 10% HI-FBS (Gibco; Cat#10082); 0.4 mg/ml Geneticin (Gibco; Cat#10131); 0.25 mg/ml Zeocin (Invitrogen; Cat#R25001)) in a 15ml centrifuge tube. The cell viability was checked with the help of Trypan Blue dye. Upon washing the cells, those were plated in a 384-well sterile clear bottom black plate (Greiner Bioone Cat# 781091) so that, each well contained 10,000 cells in 40µl complete growth media. The plate was incubated in a 5% CO2 incubator at 37°C for 18 hours. Before assay on the next day, the cell plating media was removed from each well of the plate by decanting and gentle tapping. 30µl of 0.5X Calcium 5 dye solution (0.5X FLIPR Calcium 5 dye (Molecular devices Cat# R8186); HBSS (Invitrogen; Cat#14025); 20mM HEPES (Sigma; Cat#H0887); 2.5mM Probenecid (Sigma; Cat#P8761); 0.025% Pluronic F-127 (Sigma; Cat#P2443); pH adjusted to 7.4) was added to each well. The plate was then incubated at 37°C for 30 minutes. Following which the plate was equilibrated at room temperature for 10 minutes before placing it in a 384 well FLIPR for assay. Compounds were dissolved in DMSO and serially diluted following 11 point half log (3.16 fold) dilution with a starting concentration of 2mM (Final assay concentration 10µM). Aliquots of above mentioned each dilution was mixed with assay buffer (HBSS (Invitrogen; Cat#14025); 20mM HEPES (Sigma; Cat#H0887); 2.5mM Probenecid (Sigma; Cat#P8761); 0.05% gelatin (Sigma; Cat#G1890); 0.1% BSA (Sigma; Cat#A3059); pH adjusted to 7.4) just before performing the assay. Compounds were added to the respective wells of the assay ready cell plate with the help of the FLIPR (FLIPR Tetra) and fluorescence readings were captured for 5 minutes to measure any agonistic response of the compounds. The increase in fluorescence readings from the basal reading in presence of the compounds were compared with that of the control wells (wells having no compound) to calculate the agonistic activity of the compounds. The EC50 values of the compounds were determined using the Graph pad Prism software.

SMILES	EC50 [nM]
Cc1cc(NC(=O)N[C@@H]2CCN(c3cnccn3)C[C@H]2c2ccc(Cl)cn2)sn1 (relative stereo) [Ex-19, trans-1-(5-chloro-1'-pyrazin-2-yl-1',2',3',4',5',6'-hexahydro-[2,3']bipyridinyl-4'-yl)-3-(3-methyl-isothiazol-5-yl)-urea]	0.8
COc1ccc([C@@H]2CN(c3ccc(F)cc3)CC[C@H]2NC(=O)Nc2cc(C)ns2)nc1 (relative stereo) [Ex-20, trans-1-[1'-(4-fluoro-phenyl)-5-methoxy-1',2',3',4',5',6'-hexahydro-[2,3']bipyridinyl-4'-yl]-3-(3-methyl-isothiazol-5-yl)-urea]	1
Cc1cc(NC(=O)N[C@@H]2CCN(c3ccnc(C)n3)C[C@H]2c2ccc(Cl)cn2)sn1 (relative stereo) [Ex-21, trans-1-[5-chloro-1'-(2-methyl-pyrimidin-4-yl)-1',2',3',4',5',6'-hexahydro-[2,3']bipyridinyl-4'-yl]-3-(3-methyl-isothiazol-5-yl)-urea]	7
Cc1cc(NC(=O)N[C@@H]2CCN(c3ccc(F)cc3)C[C@H]2c2ccc(Cl)cn2)sn1 (relative stereo) [Ex-26, trans-1-[5-chloro-1'-(4-fluoro-phenyl)-1',2',3',4',5',6'-hexahydro-[2,3']bipyridinyl-4'-yl]-3-(3-methyl-isothiazol-5-yl)-urea]	1
Cc1cc(NC(=O)N[C@@H]2CCN(c3cc(C(F)(F)F)ncn3)C[C@H]2c2ccc(Cl)cn2)sn1 (relative stereo) [Ex-27, trans-1-[5-chloro-1'-(6-trifluoromethyl-pyrimidin-4-yl)-1',2',3',4',5',6'-hexahydro-[2,3']bipyridinyl-4'-yl]-3-(3-methyl-isothiazol-5-yl)-urea]	6
Cc1cc(NC(=O)N[C@@H]2CCN(c3ccnc(C(F)(F)F)n3)C[C@H]2c2ccc(Cl)cn2)sn1 (relative stereo) [Ex-28, trans-1-[5-chloro-1'-(2-trifluoromethyl-pyrimidin-4-yl)-1',2',3',4',5',6'-hexahydro-[2,3']bipyridinyl-4'-yl]-3-(3-methyl-isothiazol-5-yl)-urea]	17
Cc1cc(N2CC[C@@H](NC(=O)Nc3cc(C)ns3)[C@H](c3ccc(Cl)cn3)C2)ncn1 (relative stereo) [Ex-31, trans-1-[5-chloro-1'-(6-methyl-pyrimidin-4-yl)-1',2',3',4',5',6'-hexahydro-[2,3']bipyridinyl-4'-yl]-3-(3-methyl-isothiazol-5-yl)-urea]	5
Cc1cc(NC(=O)N[C@@H]2CCN(c3cccnn3)C[C@H]2c2ccc(Cl)cn2)sn1 (relative stereo) [Ex-32, trans-1-(5-chloro-1'-pyridazin-3-yl-1',2',3',4',5',6'-hexahydro-[2,3']bipyridinyl-4'-yl)-3-(3-methyl-isothiazol-5-yl)-urea]	3
Cc1ccc(N2CC[C@@H](NC(=O)Nc3cc(C)ns3)[C@H](c3ccc(Cl)cn3)C2)nn1 (relative stereo) [Ex-33, trans-1-[5-chloro-1'-(6-methyl-pyridazin-3-yl)-1',2',3',4',5',6'-hexahydro-[2,3']bipyridinyl-4'-yl]-3-(3-methyl-isothiazol-5-yl)-urea]	11
Cc1cc(NC(=O)N[C@@H]2CCN(c3cncc(C)n3)C[C@H]2c2ccc(Cl)cn2)sn1 (relative stereo) [Ex-34, trans-1-[5-chloro-1'-(6-methyl-pyrazin-2-yl)-1',2',3',4',5',6'-hexahydro-[2,3']bipyridinyl-4'-yl]-3-(3-methyl-isothiazol-5-yl)-urea]	4
Cc1cnc(N2CC[C@@H](NC(=O)Nc3cc(C)ns3)[C@H](c3ccc(Cl)cn3)C2)cn1 (relative stereo) [Ex-41, trans-1-[5-chloro-1'-(5-methyl-pyrazin-2-yl)-1',2',3',4',5',6'-hexahydro-[2,3']bipyridinyl-4'-yl]-3-(3-methyl-isothiazol-5-yl)-urea]	3
COc1ccc([C@@H]2CN(Cc3ccc(C(F)(F)F)nc3)CC[C@H]2NC(=O)Nc2ccc(Cl)cc2)nc1 (relative stereo) [Ex-60, trans-1-(4-chlorophenyl)-3-(3-(5-methoxypyridin-2-yl)-1-((6-(trifluoromethyl)pyridin-3-yl)methyl)piperidin-4-yl)urea]	0.04
COc1ccc([C@@H]2CN(Cc3cnc(C)nc3)CC[C@H]2NC(=O)Nc2ccc(Cl)cc2)nc1 (relative stereo) [Ex-61, trans-1-(4-chlorophenyl)-3-[3-(5-methoxy-2-pyridyl)-1-[(2-methylpyrimidin-5-yl)methyl]-4-piperidyl]urea]	0.6

same assay, conditions: agonistic response at 0.1µM

SMILES	activation at 0.1 µM [%]	h FPR2 FLIPR % @0.1µM [%@0.1µM]
Cc1cc(CN2CC[C@@H](NC(=O)Nc3ccc(Cl)cc3)[C@H](c3ccc(Cl)cn3)C2)no1 (relative stereo) [Ex-23, trans-1-(4-chlorophenyl)-3-[3-(5-chloropyridin-2-yl)-1-[(5-methyl-1,2-oxazol-3-yl)methyl]piperidin-4-yl]urea]	28	–
COc1ccc([C@@H]2CN(c3ccncn3)C(=O)C[C@H]2NC(=O)Nc2ccc(Cl)cc2)nc1 (relative stereo) [Ex-25, trans-1-(4-chlorophenyl)-3-[5-(5-methoxypyridin-2-yl)-2-oxo-1-(pyrimidin-4-yl)piperidin-4-yl]urea]	17	–
COc1ccc([C@@H]2CN(Cc3ccn(C)n3)CC[C@H]2NC(=O)Nc2ccc(Cl)cc2)nc1 (relative stereo) [Ex-40, trans-1-(4-chlorophenyl)-3-[3-(5-methoxypyridin-2-yl)-1-[(1-methyl-1H-pyrazol-3-yl)methyl]piperidin-4-yl]urea]	10	–
Cc1cc(CN2CC[C@@H](NC(=O)Nc3ccc(Cl)cc3)[C@H](c3ccc(Cl)s3)C2)no1 (relative stereo) [Ex-45, trans-1-(4-chlorophenyl)-3-[3-(5-chlorothiophen-2-yl)-1-[(5-methyl-1,2-oxazol-3-yl)methyl]piperidin-4-yl]urea]	10	–
COc1ccc([C@@H]2CN(CC3CCOCC3)CC[C@H]2NC(=O)Nc2ccc(Cl)cc2)nc1 (relative stereo) [Ex-50, trans-1-(4-chlorophenyl)-3-[(5-methoxypyridin-2-yl)-1-(oxan-4-ylmethyl)piperidin-4-yl]urea]	–	40
COc1ccc([C@@H]2CN(Cc3ccn(S(C)(=O)=O)n3)CC[C@H]2NC(=O)Nc2ccccc2)nc1 (relative stereo) [Ex-59, trans-3-[1-[(1-methanesulfonyl-1H-pyrazol-3-yl)methyl]-3-(5-methoxypyridin-2-yl)piperidin-4-yl]-1-phenylurea]	26	–
Cc1cc(NC(=O)N[C@@H]2CCN(Cc3ncccn3)C[C@H]2c2ccc(Cl)s2)sn1 (relative stereo) [Ex-63, trans-1-[3-(5-chlorothiophen-2-yl)-1-(pyrimidin-2-ylmethyl)piperidin-4-yl]-3-(3-methyl-1,2-thiazol-5-yl)urea]	44	–
